Experimental data reported in paper PMC4303209, “A novel phosphatidylinositol 3-kinase (PI3K) inhibitor directs a potent FOXO-dependent, p53-independent cell cycle arrest phenotype characterized by the differential induction of a subset of FOXO-regulated genes” (Breast Cancer Research : BCR, 2014).

System: MCF-7 breast cancer cells
Assay: Microarray gene expression analysis (Agilent whole human genome 4 x 44K; compound vs DMSO, LIMMA log2 fold change)
Assay type: cell-based

Oc1cccc(-c2nc(N3CCOCC3)c3oc4ncccc4c3n2)c1 [PI-103]
PDGFRB log2FC (gene PDGFRB (5159), apoptosis genes): 0.024 | PEG3 log2FC (gene PEG3 (5178), apoptosis genes): 0.129 | PEG10 log2FC (gene PEG10 (23089), apoptosis genes): -0.104 | PF4 log2FC (gene PF4 (5196), apoptosis genes): -0.033 | PHLDA3 log2FC (gene PHLDA3 (23612), apoptosis genes): 0.113 | PIK3CG log2FC (gene PIK3CG (5294), apoptosis genes): -0.004 | PKP1 log2FC (gene PKP1 (5317), apoptosis genes): 0.031 | PLEKHG5 log2FC (gene PLEKHG5 (57449), apoptosis genes): 0.199 | PLSCR3 log2FC (gene PLSCR3 (57048), apoptosis genes): 0.125 | POLB log2FC (gene POLB (5423), apoptosis genes): -0.249 | log2FC (gene POLD4 (Gene 57804), cell cycle genes): 0.0256 | POR log2FC (gene POR (5447), apoptosis genes): 0.107 | POU3F4 log2FC (gene POU3F4 (5456), apoptosis genes): -0.017 | POU4F1 log2FC (gene POU4F1, apoptosis genes): 0.019 | log2FC (gene PPAT (Gene 10606), cell cycle genes): 0.08 | log2FC (gene PPP1CA (Gene 5499), cell cycle genes): -0.18 | log2FC (gene PPP2CA (Gene 5515), cell cycle genes): -0.52 | PPP2R1A log2FC (gene PPP2R1A (5518), apoptosis genes): 0.062 | PRAMEF8 log2FC (gene PRAMEF8 (391002), apoptosis genes): 0.060 | PRAMEF10 log2FC (gene PRAMEF10 (343071), apoptosis genes): 0.251 | log2FC (gene PRKACB (Gene 5567), cell cycle genes): 0.52 | log2FC PRKAG3 (gene PRKAG3 (Gene 53632), cell cycle genes): -0.0237 | PRKRA log2FC (gene PRKRA (8575), apoptosis genes): -0.093 | PRLR log2FC (gene PRLR (5618), apoptosis genes): 0.00543 | PROC log2FC (gene PROC (5624), apoptosis genes): 0.030 | PROP1 log2FC (gene PROP1 (5626), apoptosis genes): 0.324 | PSMA1 log2FC (gene PSMA1 (5682), apoptosis genes): -0.030 | log2FC (gene PSMA2 (Gene 5683), cell cycle genes): 0.17 | log2FC (gene PSMA3 (Gene 5684), cell cycle genes): 0.14 | PSMA5 log2FC (gene PSMA5 (5686), apoptosis genes): -0.147 | log2FC PSMA5 (gene PSMA5 (Gene 5686), cell cycle genes): -0.15 | PSMA7 log2FC (gene PSMA7 (5688), apoptosis genes): -2.082 | log2FC PSMA7 (gene PSMA7 (Gene 5688), cell cycle genes): -2.08 | PSMB3 log2FC (gene PSMB3 (5691), apoptosis genes): 0.053 | log2FC (gene PSMB4 (Gene 5692), cell cycle genes): 0.17 | PSMB7 log2FC (gene PSMB7 (5695), apoptosis genes): -0.149 | log2FC PSMB7 (gene PSMB7 (Gene 5695), cell cycle genes): -0.15 | PSMB8 log2FC (gene PSMB8 (5696), apoptosis genes): -0.00568 | PSMC4 log2FC (gene PSMC4 (5704), apoptosis genes): -0.023 | log2FC PSMC4 (gene PSMC4 (Gene 5704), cell cycle genes): -0.0233 | PSMD2 log2FC (gene PSMD2 (5708), apoptosis genes): 0.00374 | PSMD13 log2FC (gene PSMD13 (5719), apoptosis genes): -0.172 | log2FC (gene PSMD14 (Gene 10213), cell cycle genes): 0.15 | log2FC (gene PSME1 (Gene 5720), cell cycle genes): 0.31 | PSME2 log2FC (gene PSME2 (5721), apoptosis genes): 0.039 | log2FC (gene PTTG1 (Gene 9232), cell cycle genes): -0.21 | PYCARD log2FC (gene PYCARD (29108), apoptosis genes): -0.121 | log2FC (gene RAB11FIP3 (Gene 9727), cell cycle genes): -0.14 | log2FC RAD51C (gene RAD51C (Gene 5889), cell cycle genes): -0.24 | log2FC RAE1 (gene RAE1 (Gene 8480), cell cycle genes): -0.15 | RAF1 log2FC (gene RAF1 (5894), apoptosis genes): -0.081 | log2FC (gene RALA (Gene 5898), cell cycle genes): 0.34 | log2FC (gene RALB (Gene 5899), cell cycle genes): 0.08 | RAMP2 log2FC (gene RAMP2 (10266), apoptosis genes): 0.059 | log2FC RANGAP1 (gene RANGAP1 (Gene 5905), cell cycle genes): -0.09 | RAPSN log2FC (gene RAPSN (5913), apoptosis genes): -0.146 | RARB log2FC (gene RARB (5915), apoptosis genes): 0.00425 | RASSF6 log2FC (gene RASSF6 (166824), apoptosis genes): 0.020 | log2FC (gene RBBP8 (Gene 5932), cell cycle genes): 0.34 | log2FC (gene RBL1 (Gene 5933), cell cycle genes): 0.17 | log2FC (gene RBM7 (Gene 10179), cell cycle genes): 0.23 | log2FC (gene RCC1 (Gene 1104), cell cycle genes): -0.14 | log2FC REEP4 (gene REEP4 (Gene 80346), cell cycle genes): 0.28 | RET log2FC (gene RET (5979), apoptosis genes): -0.025 | RHOT2 log2FC (gene RHOT2 (89941), apoptosis genes): 0.051 | log2FC RPA2 (gene RPA2 (Gene 6118), cell cycle genes): -0.25 | RPS3 log2FC (gene RPS3 (6188), apoptosis genes): -0.043 | RPS6KA2 log2FC (gene RPS6KA2 (6196), apoptosis genes): 0.189 | log2FC (gene RPS6KB1 (Gene 6198), cell cycle genes): 0.25 | RRN3 log2FC (gene RRN3 (653390), apoptosis genes): 0.004 | log2FC (gene RSPO1 (Gene 284654), cell cycle genes): -0.11 | RYR2 log2FC (gene RYR2 (6262), apoptosis genes): -0.075 | S100A9 log2FC (gene S100A9 (6280), apoptosis genes): 0.057 | S100A14 log2FC (gene S100A14 (57402), apoptosis genes): 0.033 | log2FC (gene SART1 (Gene 9092), cell cycle genes): -0.00235 | SCIN log2FC (gene SCIN (85477), apoptosis genes): -0.013 | log2FC (gene SEH1L (Gene 81929), cell cycle genes): -0.57 | SEMA5A log2FC (gene SEMA5A (9037), apoptosis genes): -0.022 | log2FC SENP2 (gene SENP2 (Gene 59343), cell cycle genes): -0.06 | SERINC3 log2FC (gene SERINC3 (10955), apoptosis genes): 0.115 | SERPINE1 log2FC (gene SERPINE1 (5054), apoptosis genes): -0.018 | log2FC (gene SESN1 (Gene 27244), cell cycle genes): -0.06 | SHF log2FC (gene SHF (90525), apoptosis genes): 0.016 | SKIL log2FC (gene SKIL (6498), apoptosis genes): 0.039 | log2FC SKIL (gene SKIL (Gene 6498), cell cycle genes): 0.04 | log2FC (gene SLBP (Gene 7884), cell cycle genes): 0.11 | SLC25A6 log2FC (gene SLC25A6 (293), apoptosis genes): -0.018 | log2FC SLC26A8 (gene SLC26A8 (Gene 116369), cell cycle genes): -0.065 | SLC40A1 log2FC (gene SLC40A1 (30061), apoptosis genes): -0.00212 | SMAD1 log2FC (gene SMAD1 (4086), apoptosis genes): -0.215 | SMNDC1 log2FC (gene SMNDC1 (10285), apoptosis genes): -0.319 | SOD1 log2FC (gene SOD1 (6647), apoptosis genes): 0.105 | SOS1 log2FC (gene SOS1 (6654), apoptosis genes): 0.010 | SOX8 log2FC (gene SOX8 (30812), apoptosis genes): -0.456 | log2FC SPO11 (gene SPO11 (Gene 23626), cell cycle genes): 0.0237 | SPTAN1 log2FC (gene SPTAN1 (6709), apoptosis genes): 0.362 | log2FC (gene SRC (Gene 6714), cell cycle genes): -0.35 | log2FC (gene STAG1 (Gene 10274), cell cycle genes): 0.32 | STK3 log2FC (gene STK3 (6788), apoptosis genes): 0.109 | SULF1 log2FC (gene SULF1 (23213), apoptosis genes): -0.171 | log2FC (gene SUPT5H (Gene 6829), cell cycle genes): 0.00774 | log2FC (gene SUV39H2 (Gene 79723), cell cycle genes): -0.56 | SYCP2 log2FC (gene SYCP2 (10388), apoptosis genes): 0.019 | log2FC SYCP2 (gene SYCP2 (Gene 10388), cell cycle genes): 0.02 | log2FC SYCP3 (gene SYCP3 (Gene 50511), cell cycle genes): -0.03 | log2FC (gene TAF2 (Gene 6873), cell cycle genes): 0.21 | log2FC TAF6 (gene TAF6 (Gene 6878), cell cycle genes): 0.22 | log2FC (gene TAOK2 (Gene 9344), cell cycle genes): -0.25 | TEK log2FC (gene TEK (7010), apoptosis genes): -0.024 | log2FC (gene TEX14 (Gene 56155), cell cycle genes): 0.17 | log2FC (gene TEX15 (Gene 56154), cell cycle genes): 0.23 | TFAP2D log2FC (gene TFAP2D (83741), apoptosis genes): 0.021 | log2FC (gene TGFA (Gene 7039), cell cycle genes): -0.53 | TGFB2 log2FC (gene TGFB2 (7042), apoptosis genes): -0.026 | log2FC TGFB2 (gene TGFB2 (Gene 7042), cell cycle genes): -0.0258 | THEM4 log2FC (gene THEM4 (117145), apoptosis genes): -0.280 | log2FC THOC5 (gene THOC5 (Gene 8563), cell cycle genes): 0.0165 | TMBIM4 log2FC (gene TMBIM4 (51643), apoptosis genes): -0.154 | log2FC (gene TMEM67 (Gene 91147), cell cycle genes): 0.17 | TMEM102 log2FC (gene TMEM102 (284114), apoptosis genes): 0.338 | TNFRSF1B log2FC (gene TNFRSF1B (7133), apoptosis genes): -0.040 | TNFRSF8 log2FC (gene TNFRSF8 (943), apoptosis genes): 0.099 | TNFRSF10C log2FC (gene TNFRSF10C (8794), apoptosis genes): 0.011 | TNFSF8 log2FC (gene TNFSF8 (944), apoptosis genes): -0.011 | TNFSF9 log2FC (gene TNFSF9 (8744), apoptosis genes): 0.192 | TNFSF10 log2FC (gene TNFSF10 (8743), apoptosis genes): 0.00148 | TNFSF12 log2FC (gene TNFSF12 (8742), apoptosis genes): 0.353 | TNFSF14 log2FC (gene TNFSF14 (8740), apoptosis genes): 0.027 | TNFSF15 log2FC (gene TNFSF15 (9966), apoptosis genes): 0.054 | TNFSF18 log2FC (gene TNFSF18 (8995), apoptosis genes): 0.071 | log2FC (gene TP73 (Gene 7161), cell cycle genes): -0.25 | log2FC (gene TPD52L1 (Gene 7164), cell cycle genes): 0.15 | TPX2 log2FC (gene TPX2 (22974), apoptosis genes): -0.00173 | TRAF2 log2FC (gene TRAF2 (7186), apoptosis genes): -0.347 | TRAF3IP2 log2FC (gene TRAF3IP2 (10758), apoptosis genes): -0.037 | log2FC TRIP13 (gene TRIP13 (Gene 9319), cell cycle genes): -0.38 | log2FC (gene TUBGCP6 (Gene 85378), cell cycle genes): -0.19 | TXNDC5 log2FC (gene TXNDC5 (81567), apoptosis genes): -0.039 | log2FC TYMS (gene TYMS (Gene 7298), cell cycle genes): -0.08 | UBD log2FC (gene UBD (10537), apoptosis genes): -0.037 | UBE2V2 log2FC (gene UBE2V2 (7336), apoptosis genes): -0.365 | UNC13B log2FC (gene UNC13B (10497), apoptosis genes): 0.046 | VDAC2 log2FC (gene VDAC2 (7417), apoptosis genes): -0.094 | VIM log2FC (gene VIM (7431), apoptosis genes): 0.122 | VIP log2FC (gene VIP (7432), apoptosis genes): -0.302 | VNN1 log2FC (gene VNN1 (8876), apoptosis genes): -0.010 | log2FC (gene VRK1 (Gene 7443), cell cycle genes): 0.16 | WNK3 log2FC (gene WNK3 (65267), apoptosis genes): -0.015 | log2FC (gene WTAP (Gene 9589), cell cycle genes): -0.47 | log2FC (gene YY1AP1 (Gene 55249), cell cycle genes): 0.31 | ZBTB16 log2FC (gene ZBTB16 (7704), apoptosis genes): -0.00549 | log2FC ZC3H12D (gene ZC3H12D (Gene 85313), cell cycle genes): -0.0743 | log2FC (gene ZC3HC1 (Gene 51530), cell cycle genes): 0.16 | ZNF205 log2FC (gene ZNF205 (7755), apoptosis genes): -0.247 | ZNF443 log2FC (gene ZNF443 (10224), apoptosis genes): -0.204 | log2FC (gene ZNF503 (Gene 84858), cell cycle genes): -0.12 | ZNF622 log2FC (gene ZNF622 (90441), apoptosis genes): -0.120
